Test results reported in ChEMBL document CHEMBL1143417, “Roles of P-glycoprotein, Bcrp, and Mrp2 in biliary excretion of spiramycin in mice” (Antimicrob Agents Chemother, 2007).

What was measured:
[1] = Drug excretion in C57BL/6 mouse assessed as drug recovery in bile at 1 uM administered through single-pass liver perfusion for 15 mins coinfused with Pgp and Bcrp inhibitor GW918 relative to total liver drug content at the end of infusion; format: ADME, tissue-based; parameters: scale not given: the % may be the effect or the level left; conditions: in vivo, 0.25 h
Mus musculus [2] = test: Drug excretion in Mrp2 gene knockout C57BL/6 mouse assessed as drug recovery in outflow perfusate at 1 uM administered through single-pass liver perfusion for 15 mins coinfused with Pgp and Bcrp inhibitor GW918 relative to total liver drug content at the end of infusion; format: ADME, organism-based; parameters: scale not given: the % may be the effect or the level left; conditions: in vivo, 0.25 h
Mus musculus [3] = test: Hepatic uptake clearance in Bcrp gene knockout C57BL/6 mouse at 1 uM administered through single-pass liver perfusion for 15 mins coinfused with Pgp and Bcrp inhibitor GW918; format: ADME, organism-based; conditions: in vivo, 0.25 h
[4] = Drug level in Bcrp gene knockout C57BL/6 mouse bile at 1 uM administered through single-pass liver perfusion for 15 mins coinfused with Pgp and Bcrp inhibitor GW918; format: ADME, tissue-based; conditions: in vivo, 0.25 h
[5] = Drug level in Mrp2 gene knockout C57BL/6 mouse bile at 1 uM administered through single-pass liver perfusion for 15 mins coinfused with Pgp and Bcrp inhibitor GW918; format: ADME, tissue-based; conditions: in vivo, 0.25 h
Mus musculus [6] = test: Hepatic uptake clearance in Bcrp gene knockout C57BL/6 mouse at 1 uM administered through single-pass liver perfusion for 15 mins; format: ADME, organism-based; conditions: in vivo, 0.25 h
[7] = Drug excretion in Mrp2 gene knockout C57BL/6 mouse assessed as drug recovery in bile at 1 uM administered through single-pass liver perfusion for 15 mins relative to total liver drug content at the end of infusion; format: ADME, tissue-based; conditions: in vivo, 0.25 h
Mus musculus [8] = test: Hepatic uptake clearance in Mrp2 gene knockout C57BL/6 mouse at 1 uM administered through single-pass liver perfusion for 15 mins; format: ADME, organism-based; conditions: in vivo, 0.25 h
[9] = Drug level in C57BL/6 mouse bile at 1 uM administered through single-pass liver perfusion for 15 mins coinfused with Pgp and Bcrp inhibitor GW918; format: ADME, tissue-based; conditions: in vivo, 0.25 h
Mus musculus [10] = test: Drug excretion in C57BL/6 mouse assessed as drug recovery in outflow perfusate at 1 uM administered through single-pass liver perfusion for 15 mins relative to total liver drug content at the end of infusion; format: ADME, organism-based; conditions: in vivo, 0.25 h
Mus musculus [11] = test: Drug excretion in Mrp2 gene knockout C57BL/6 mouse assessed as drug recovery in outflow perfusate at 1 uM administered through single-pass liver perfusion for 15 mins relative to total liver drug content at the end of infusion; format: ADME, organism-based; conditions: in vivo, 0.25 h
[12] = Drug level in Mrp2 gene knockout C57BL/6 mouse bile at 1 uM administered through single-pass liver perfusion for 15 mins; format: ADME, tissue-based; conditions: in vivo, 0.25 h
Mus musculus [13] = test: Drug excretion in Bcrp gene knockout C57BL/6 mouse assessed as drug recovery in outflow perfusate and bile at 1 uM administered through single-pass liver perfusion for 15 mins; format: ADME, organism-based; conditions: in vivo, 0.25 h
[14] = Drug excretion in Bcrp gene knockout C57BL/6 mouse assessed as drug recovery in bile at 1 uM administered through single-pass liver perfusion for 15 mins coinfused with Pgp and Bcrp inhibitor GW918 relative to total liver drug content at the end of infusion; format: ADME, tissue-based; parameters: scale not given: the % may be the effect or the level left; conditions: in vivo, 0.25 h
[15] = Drug excretion in Bcrp gene knockout C57BL/6 mouse assessed as drug recovery in bile at 1 uM administered through single-pass liver perfusion for 15 mins relative to total liver drug content at the end of infusion; format: ADME, tissue-based; conditions: in vivo, 0.25 h
Mus musculus [16] = test: Hepatic uptake clearance in C57BL/6 mouse at 1 uM administered through single-pass liver perfusion for 15 mins; format: ADME, organism-based; conditions: in vivo, 0.25 h
Mus musculus [17] = test: Drug excretion in Bcrp gene knockout C57BL/6 mouse assessed as drug recovery in outflow perfusate at 1 uM administered through single-pass liver perfusion for 15 mins coinfused with Pgp and Bcrp inhibitor GW918 relative to total liver drug content at the end of infusion; format: ADME, organism-based; parameters: scale not given: the % may be the effect or the level left; conditions: in vivo, 0.25 h
Mus musculus [18] = test: Drug excretion in C57BL/6 mouse assessed as drug recovery in outflow perfusate and bile at 1 uM administered through single-pass liver perfusion for 15 mins; format: ADME, organism-based; conditions: in vivo, other, 0.25 h
Mus musculus [19] = test: Drug excretion in C57BL/6 mouse assessed as drug recovery in outflow perfusate at 1 uM administered through single-pass liver perfusion for 15 mins coinfused with Pgp and Bcrp inhibitor GW918 relative to total liver drug content at the end of infusion; format: ADME, organism-based; parameters: scale not given: the % may be the effect or the level left; conditions: in vivo, 0.25 h
Mus musculus [20] = test: Hepatic uptake clearance in C57BL/6 mouse at 1 uM administered through single-pass liver perfusion for 15 mins coinfused with Pgp and Bcrp inhibitor GW918; format: ADME, organism-based; conditions: in vivo, 0.25 h
[21] = Drug excretion in C57BL/6 mouse assessed as drug recovery in bile at 1 uM administered through single-pass liver perfusion for 15 mins relative to total liver drug content at the end of infusion; format: ADME, tissue-based; conditions: in vivo, 0.25 h
[22] = Drug level in Bcrp gene knockout C57BL/6 mouse bile at 1 uM administered through single-pass liver perfusion for 15 mins; format: ADME, tissue-based; conditions: in vivo, 0.25 h
Mus musculus [23] = test: Drug excretion in Mrp2 gene knockout C57BL/6 mouse assessed as drug recovery in outflow perfusate and bile at 1 uM administered through single-pass liver perfusion for 15 mins; format: ADME, organism-based; conditions: in vivo, 0.25 h
Mus musculus [24] = test: Drug excretion in Bcrp gene knockout C57BL/6 mouse assessed as drug recovery in outflow perfusate at 1 uM administered through single-pass liver perfusion for 15 mins relative to total liver drug content at the end of infusion; format: ADME, organism-based; conditions: in vivo, 0.25 h
[25] = Drug excretion in Mrp2 gene knockout C57BL/6 mouse assessed as drug recovery in bile at 1 uM administered through single-pass liver perfusion for 15 mins coinfused with Pgp and Bcrp inhibitor GW918 relative to total liver drug content at the end of infusion; format: ADME, tissue-based; parameters: scale not given: the % may be the effect or the level left; conditions: in vivo, 0.25 h
[26] = Drug level in C57BL/6 mouse bile at 1 uM administered through single-pass liver perfusion for 15 mins; format: ADME, tissue-based; conditions: in vivo, 0.25 h
Mus musculus [27] = test: Hepatic uptake clearance in Mrp2 gene knockout C57BL/6 mouse at 1 uM administered through single-pass liver perfusion for 15 mins coinfused with Pgp and Bcrp inhibitor GW918; format: ADME, organism-based; conditions: in vivo, 0.25 h

SPIRAMYCIN
Activity [1]: 4.36%
Activity (Mus musculus [2]): 24%
CLup (Mus musculus [3]): 5.03 mL/min
Drug uptake [4]: 14 µg/mL
Drug uptake [5]: 1.77 µg/mL
CLup (Mus musculus [6]): 4.55 mL/min
Activity [7]: 1.21%
CLup (Mus musculus [8]): 5.15 mL/min
Drug uptake [9]: 7.82 µg/mL
Activity (Mus musculus [10]): 32.5%
Activity (Mus musculus [11]): 29.5%
Drug uptake [12]: 3.45 µg/mL
Activity (Mus musculus [13]): 86.5 %ID
Activity [14]: 8.28%
Activity [15]: 14.1%
CLup (Mus musculus [16]): 4.63 mL/min
Activity (Mus musculus [17]): 25.2%
Activity (Mus musculus [18]): 90.5 %ID
Activity (Mus musculus [19]): 34.1%
CLup (Mus musculus [20]): 4.64 mL/min
Activity [21]: 9.15%
Drug uptake [22]: 19.1 µg/mL
Activity (Mus musculus [23]): 82.4 %ID
Activity (Mus musculus [24]): 28.1%
Activity [25]: 0.58%
Drug uptake [26]: 8.65 µg/mL
CLup (Mus musculus [27]): 4.7 mL/min
